The values that follow come from publication PMC8909107, “Imaging Kv1.3 Expressing Memory T Cells as a Marker of Immunotherapy Response” (Cancers, 2022).

A word on the IC50: it is the concentration at which inhibition is half-maximal. One may read the tissue uptake as the share of the injected amount in each gram of the tissue.

The target of data set [1] is T1, KV1.3 channels (L929 fibroblasts stably expressing KV1.3) (Mus musculus, UniProt P16390).
T1 construct: expressed in transfected cells
Briefly: Patch-clamp (QPatch HTX), run-down of Kv1.3 currents after overnight exposure. The following applies: L929-KV1.3 cells, overnight exposure 0.1, 1 or 10 μM; current density (pA/pF) at pulses 18-20 normalized to control; n = 13; read-out: IC50 (50% suppression) from normalized current density. In kind it is cell-based. How it is done:
The effects of the peptides NOTA-KCNA3P and EgK5 on KV1.2, KV1.3 and KV1.5 [19] channels were evaluated by patch-clamp as detailed in the Supplementary Materials (Supplementary Figure S3) using a QPatch HTX automated electrophysiology platform.
We used patch-clamp analysis to determine if NOTA-KCNA3P modulates Kv1.3 channels such as EgK5. We exposed L929 fibroblasts stably expressing KV1.3 channels overnight to NOTA-KCNA3P (0.1, 1 or 10 μM) or EgK5 (10 μM) dissolved in P6N buffer, or to media containing an equal volume of P6N buffer. […] Concentration–response curves generated with either normalized current amplitude or normalized current density yielded IC50 (50% suppression) values of […] and 50 nM, respectively, for NOTA-KCNA3P (Supplementary Figure S3D,E). […]
[18F]AlF-NOTA-KCNA3P was between 8.2 - 8.3 min. […] The radiochemical purity of [18F]AlF-NOTA-KCNA3P was assessed by analytical radio-HPLC (Aeris™ 5µm PEPTIDE XB-C18, 100 Å, 250 x 4.6 mm; 1 ml / min, λ = 220 nm). […]
NOTA-KCNA3P and EgK5 were prepared as 1-10 mM stock solutions in P6N buffer (10 mM sodium phosphate, 0.8% w/v, NaCl, and 0.05% v/v Tween 20, pH 6), diluted with 0.1% (w/v) BSA in external buffer. The effects of peptides on KV1.2, KV1.3 and KV1.5[1] channels were evaluated by patch-clamp using a QPatch HTX automated electrophysiol-ogy platform (Sophion, Denmark) (Supplementary Figure S3). […]
(In general: Patch clamp records ionic current or voltage across a cell membrane.)

Data set [2] in a line: PET-CT tumour retention of the tracer after ICI treatment. In kind it is in vivo, BALB/c mice. The following applies: BALB/c, mouse, CT26 tumour, iv, 10 MBq, total radioactivity, PET-CT day 12, 20 min static from 60 min post-injection, ~10 MBq i.v., mean ± SD. From the text: All animal procedures strictly followed IACUC guidelines (IACUC No. 181399) and conformed to NIH guidelines and public law. Development of the animal model has been described previously. Briefly, BALB/c mice aged 6–8 weeks were purchased from In Vivos (Singapore) and implanted subcutaneously into the right shoulder with the murine colon cancer cell line CT26 (ATCC, 2 × 10^5 cells per animal 1:1 (v:v) ratio in Matrigel). Tumour volumes were repeatedly measured on days 6, 9, 12, 15, 19 and 21 post tumour implantation. The mice were randomised and dosed by intraperitoneal (i.p.) injection on days 6, 9 and 12 following tumour inoculation. Treatment groups included control (5 mg/kg, rat IgG2a isotype control, α-trinitrophenol mAb, IP), αPD1 mAb monotherapy (10 mg/kg, rat IgG2a anti-mouse PD-1, RMP1-14) and combined αPD1 and αCTLA4 mAb therapy (10 mg/kg and 5 mg/kg, respectively, mouse IgG2b anti-mouse CTLA-4, 9D9, Bio-X Cell).
(§1) Mice were imaged under isoflurane anaesthesia and injected with [^18F]AlF-NOTA-KCNA3P (~10 MBq) via the lateral tail vein. Dynamic time–activity curves were acquired to assess tracer uptake and clearance profiles (Supplementary Figure S4) and tail vein blood samples taken to assess in vivo metabolic stability (Supplementary Figure S7). To stratify response to therapy, animals were imaged on day 12 using a Siemens Inveon PET-CT as previously described. Briefly, 20 min static PET acquisitions were acquired from 60 min post-injection and analysis of the reconstructed calibrated images was performed and volumes of interest delineated by CT imaging were used to determine tissue uptake (whole body distribution shown for reference in Supplementary Figure S8). Data are expressed as % of the injected dose per gram (%ID/g) of tumour tissue in the volume of interest.
Tumour uptake of [^18F]AlF-NOTA-KCNA3P was heterogeneous depending on treatment regime and treatment efficacy (Figure 3A) with a tumour-to-blood ratio (TBR) of ~2 in tumour responders and a TBR of ~1 in tumour non-responders (TNRs). Low tumour uptake of [^18F]AlF-NOTA-KCNA3P was measured in the TNRs and the control treatment arm. […] Tumour uptake of [^18F]AlF-NOTA-KCNA3P was sufficient to distinguish from background and differentiated responsive tumours from treated non-responders (Table 1 and Figure 3B,C) in vivo. Ex vivo biodistribution was used to confirm the imaging results (Supplementary Figure S5). Importantly, no difference was seen between non-responders and responders in the biodistribution of [^18F]AlF-NOTA-KCNA3P in muscle, blood, lung, skin, heart and brain, the only difference being in the tumour (Supplementary Figure S5).

On the set-up of data set [3]: species or system mice. To be noted: in vivo, ~20MBq i.v., blood samples at 0, 30, 60 and 120 min p.i., radioHPLC, over 120 minutes. From the text:
Mice were imaged under isoflurane anaesthesia and injected with [^18F]AlF-NOTA-KCNA3P (~10 MBq) via the lateral tail vein. Dynamic time–activity curves were acquired to assess tracer uptake and clearance profiles (Supplementary Figure S4) and tail vein blood samples taken to assess in vivo metabolic stability (Supplementary Figure S7). To stratify response to therapy, animals were imaged on day 12 using a Siemens Inveon PET-CT as previously described. […] Data are expressed as % of the injected dose per gram (%ID/g) of tumour tissue in the volume of interest.
Supplementary Figure S5. […] ICI treated responder (TR, black) and treated non responder (TNR, white) animals were sacrificed 80min post-injection, tissues excised, weighed and radioactivity quantified using a Wallac gamma counter. […]
Tumour Kv1.3 expression on infiltrating lymphocytes (TILs) were quantified using standard western blotting procedures as previously described. […]
An equal amount of 10% sulfosalicylic acid was added to the supernatant plasma samples and vortexed to precipitate out remaining proteins. The samples were centrifuged at 2,500 x g for 5 min at 4 °C, and the supernatant analyzed via radioHPLC. […]

Data set [4] is classed as in vivo, BalbC mice bearing CT26 tumours. The procedure:
as §1
Tumour uptake of [^18F]AlF-NOTA-KCNA3P was heterogeneous depending on treatment regime and treatment efficacy (Figure 3A) with a tumour-to-blood ratio (TBR) of ~2 in tumour responders and a TBR of ~1 in tumour non-responders (TNRs). Low tumour uptake of [^18F]AlF-NOTA-KCNA3P was measured in the TNRs and the control treatment arm. […] Tumour uptake of [^18F]AlF-NOTA-KCNA3P was sufficient to distinguish from background and differentiated responsive tumours from treated non-responders (Table 1 and Figure 3B,C) in vivo. Ex vivo biodistribution was used to confirm the imaging results (Supplementary Figure S5). Importantly, no difference was seen between non-responders and responders in the biodistribution of [^18F]AlF-NOTA-KCNA3P in muscle, blood, lung, skin, heart and brain, the only difference being in the tumour (Supplementary Figure S5). […]
1.7 In vivo biodistribution of [18F]AlF-NOTA-KCNA3P
The biodistribution of [18F]AlF-NOTA-KCNA3P was assessed in BalbC mice bearing CT26 tumours treated with combined PD-1 and CTLA4 therapy. The animals were im-aged dynamically for 120 minutes and the distribution and excretion characteristics as- […]
the kidneys and hepatobiliary routes (Supplementary Figure S4). Blood clearance is […]
Supplementary Figure S5. Ex vivo biodistribution analysis of [18F]AlF-NOTA-KCNA3P retention in selected organs. ICI treated responder (TR, black) and treated non responder (TNR, white) animals were sacrificed 80min post-injection, tissues excised, weighed and radioactivity quantified using a Wallac gamma counter. Bars represent the mean of 5 animals ± SEM, * P<0.05.
1.9 Western blot analysis of Kv1.3 […]
The following anti- […]
bodies were used: anti-Kv1.3 KCNA3 (APC-101, Alomone) and anti-GAPDH (SC-47724, […]
Supplementary Figure S6. […]

Bridges are numbered along the chain shown (N, C = ends). Where no end group is shown, it is not given here. The star is where a group is joined. NOTA = O=C(O)CN1CCN(CC(=O)O)CCN(CC(=O)*)CC1

T1 sequence (P16390 whole entry): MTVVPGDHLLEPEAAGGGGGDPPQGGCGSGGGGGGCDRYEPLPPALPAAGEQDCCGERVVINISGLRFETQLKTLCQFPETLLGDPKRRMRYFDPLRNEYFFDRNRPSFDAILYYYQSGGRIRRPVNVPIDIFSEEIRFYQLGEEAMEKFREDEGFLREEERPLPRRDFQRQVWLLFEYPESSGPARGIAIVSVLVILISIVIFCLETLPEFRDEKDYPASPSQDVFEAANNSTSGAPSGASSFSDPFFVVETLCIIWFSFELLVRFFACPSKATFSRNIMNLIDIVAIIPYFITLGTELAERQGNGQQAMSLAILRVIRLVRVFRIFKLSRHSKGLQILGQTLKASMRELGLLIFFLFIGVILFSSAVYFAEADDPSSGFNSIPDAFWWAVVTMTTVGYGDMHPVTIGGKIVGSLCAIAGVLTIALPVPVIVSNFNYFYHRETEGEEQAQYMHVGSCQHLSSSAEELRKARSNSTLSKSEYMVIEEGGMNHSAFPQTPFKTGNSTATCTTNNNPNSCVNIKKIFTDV

As for “{NOTA}-RTCESASHKFEGPCLRDSNCANVCKTEGFHGGKCKGLRRRCFCTKHC (disulfide 3-47, 14-34, 20-41, 24-43) [NOTA-KCNA3P]”, the IC50 in data set [1] is 50 nM.
Turning to “{NOTA}-RTCESASHKFEGPCLRDSNCANVCKTEGFHGGKCKGLRRRCFCTKHC (disulfide 3-47, 14-34, 20-41, 24-43) [[^18F]AlF-NOTA-KCNA3P]”, the tissue uptake in data set [2] (Control group (isotype IgG), n = 10 mice/group) was found to be 0.51 ± 0.19 %ID/g; in data set [2] (Treatment non-responders (TNR)), 0.53 ± 0.2 %ID/g; in data set [2] (Treatment responsive tumours (TR), αPD1 + αCTLA4), 1.3 ± 0.36 %ID/g; in data set [2] (Treatment responsive tumours (TR), αPD1), 0.87 ± 0.15 %ID/g. Also, the “metabolism of parent tracer in plasma” value in data set [3] is “less than 30%”. For the same substance, the Blood clearance result in data set [4] (dynamic PET 120 minutes) is on record as “rapid”. For the same substance, in data set [4] (dynamic PET 120 minutes), the muscle uptake result is recorded as “relatively low”. Moreover, the excretion profile entry in data set [4] (dynamic PET 120 minutes, CT26 tumour mice treated with combined PD-1 and CTLA4 therapy) is “excretion via the kidneys and hepatobiliary routes”. The “difference between non-responders and responders in biodistribution in muscle, blood, lung, skin, heart and brain” value in data set [4] (ex vivo biodistribution, 80min post-injection, gamma counter, 5 animals) is reported as “no difference”.
